Paper PMC6500773 (Psychopharmacology, 2018)
Where two headings read alike, the source gives them in different places.

Columns and labels:
hDAT [1] = molecular target: T1, hDAT (Homo sapiens, UniProt Q01959); test: Inhibition of [125I]RTI-55 binding, HEK-hDAT membranes
mouse striatum = conditions: administered orally, ref Fuwa et al. 2016; cited from earlier work
hNET [2] = molecular target: T2, hNET (Homo sapiens, UniProt P23975); test: cell-based
hSERT [3] = molecular target: T3, hSERT (Homo sapiens, UniProt P31645); test: Drug-induced release of preloaded [3H]5-HT from HEK-hSERT cells; format: cell-based; conditions: for releasing efficacy at hSERT: [3H]5-HT release; for % maximum release ± sem, hSERT [3H]5-HT: relative to maximal AUC induced by METH (0.3–1 mM)
hDAT [4] = molecular target: T1, hDAT; test: Drug-induced release of preloaded [3H]DA from HEK-hDAT cells; format: cell-based; conditions: for releasing efficacy at hDAT: [3H]DA release; for % maximum release ± sem, hDAT [3H]DA: relative to maximal AUC induced by METH (1 or 10 μM)
hNET [5] = molecular target: T2, hNET; test: biochemical; format: binding
hDAT [6] = molecular target: T1, hDAT; test: Inhibition of [3H]DA uptake by HEK-hDAT cells; format: cell-based; conditions: for Ratio DAT/SERT: 1/(DAT IC50) divided by 1/(SERT IC50), uptake, higher = more DAT selective
hNET [7] = molecular target: T2, hNET; test: Drug-induced release of preloaded [3H]NE from HEK-hNET cells; format: cell-based; conditions: for releasing efficacy at hNET: [3H]NE release; for % maximum release ± sem, hNET [3H]NE: relative to maximal AUC induced by METH (0.3 or 1 μM)
hSERT [8] = molecular target: T3, hSERT; test: Inhibition of [3H]5-HT uptake by HEK-hSERT cells; format: cell-based
hSERT [9] = molecular target: T3, hSERT; test: Inhibition of [125I]RTI-55 binding, HEK-hSERT membranes
hDAT [10] = molecular target: T1, hDAT; conditions: relative to maximal METH release; ref Eshleman et al. 2017; cited from earlier work
hNET [11] = molecular target: T2, hNET; conditions: ref Eshleman et al. 2017, cited from earlier work
hSERT [12] = molecular target: T3, hSERT; conditions: relative to maximal METH release; ref Eshleman et al. 2017; cited from earlier work
hNET [13] = molecular target: T2, hNET; conditions: read-out: Inhibition of [3H]neurotransmitter uptake IC50 ± sem, hNET [3H]NE; HEK-hNET cells; ref Eshleman et al. 2017; cited from earlier work
hDAT [14] = molecular target: T1, hDAT; conditions: cited from earlier work; for Ratio DAT/SERT: 1/(DAT IC50) divided by 1/(SERT IC50), uptake, ref Eshleman et al. 2017
[15] = read-out: Inhibition of [125I]RTI-55 binding Ki ± sem, hDAT, HEK-hDAT membranes
[16] = read-out: Inhibition of [3H]neurotransmitter uptake IC50 ± sem, hNET [3H]NE, HEK-hNET cells
[17] = read-out: Inhibition of [125I]RTI-55 binding Ki ± sem, hNET, HEK-hNET membranes
[18] = read-out: Drug-induced release of [3H]neurotransmitter EC50 ± sem, hNET [3H]NE, HEK-hNET cells

T2 sequence (P23975 whole entry): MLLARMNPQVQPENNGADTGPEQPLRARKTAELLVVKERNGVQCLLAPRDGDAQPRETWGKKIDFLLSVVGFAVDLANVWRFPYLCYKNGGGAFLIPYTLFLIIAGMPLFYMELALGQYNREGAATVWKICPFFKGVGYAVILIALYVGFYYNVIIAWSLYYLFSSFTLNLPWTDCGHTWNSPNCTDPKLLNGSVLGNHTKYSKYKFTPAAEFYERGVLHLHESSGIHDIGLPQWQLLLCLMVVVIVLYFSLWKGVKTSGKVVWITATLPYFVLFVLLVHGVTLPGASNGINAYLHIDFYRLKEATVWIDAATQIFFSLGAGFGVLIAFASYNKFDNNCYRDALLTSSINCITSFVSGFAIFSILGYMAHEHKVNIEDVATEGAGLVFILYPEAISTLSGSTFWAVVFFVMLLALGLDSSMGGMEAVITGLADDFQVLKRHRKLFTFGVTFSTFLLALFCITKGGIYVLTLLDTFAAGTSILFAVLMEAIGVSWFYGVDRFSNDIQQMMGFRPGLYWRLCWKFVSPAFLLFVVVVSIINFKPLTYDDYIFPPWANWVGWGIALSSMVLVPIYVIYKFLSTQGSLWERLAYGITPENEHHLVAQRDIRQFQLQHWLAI
T1 sequence (Q01959 whole entry): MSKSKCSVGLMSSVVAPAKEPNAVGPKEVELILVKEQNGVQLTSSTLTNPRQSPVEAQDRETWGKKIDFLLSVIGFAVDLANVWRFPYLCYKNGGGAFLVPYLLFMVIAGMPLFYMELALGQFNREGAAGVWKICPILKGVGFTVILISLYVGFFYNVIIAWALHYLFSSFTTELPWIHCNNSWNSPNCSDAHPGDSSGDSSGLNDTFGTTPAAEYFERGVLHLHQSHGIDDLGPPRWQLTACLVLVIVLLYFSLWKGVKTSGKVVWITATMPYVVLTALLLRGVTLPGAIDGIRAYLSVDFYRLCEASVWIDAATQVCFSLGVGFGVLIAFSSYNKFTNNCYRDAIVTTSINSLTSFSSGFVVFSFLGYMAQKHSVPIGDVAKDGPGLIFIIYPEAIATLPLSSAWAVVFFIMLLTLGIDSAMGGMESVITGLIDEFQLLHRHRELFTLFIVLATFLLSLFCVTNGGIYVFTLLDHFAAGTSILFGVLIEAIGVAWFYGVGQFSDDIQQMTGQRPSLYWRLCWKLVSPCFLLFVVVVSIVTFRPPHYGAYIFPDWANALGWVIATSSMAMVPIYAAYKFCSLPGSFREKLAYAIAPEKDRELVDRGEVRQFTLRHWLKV
T3 sequence (P31645 whole entry): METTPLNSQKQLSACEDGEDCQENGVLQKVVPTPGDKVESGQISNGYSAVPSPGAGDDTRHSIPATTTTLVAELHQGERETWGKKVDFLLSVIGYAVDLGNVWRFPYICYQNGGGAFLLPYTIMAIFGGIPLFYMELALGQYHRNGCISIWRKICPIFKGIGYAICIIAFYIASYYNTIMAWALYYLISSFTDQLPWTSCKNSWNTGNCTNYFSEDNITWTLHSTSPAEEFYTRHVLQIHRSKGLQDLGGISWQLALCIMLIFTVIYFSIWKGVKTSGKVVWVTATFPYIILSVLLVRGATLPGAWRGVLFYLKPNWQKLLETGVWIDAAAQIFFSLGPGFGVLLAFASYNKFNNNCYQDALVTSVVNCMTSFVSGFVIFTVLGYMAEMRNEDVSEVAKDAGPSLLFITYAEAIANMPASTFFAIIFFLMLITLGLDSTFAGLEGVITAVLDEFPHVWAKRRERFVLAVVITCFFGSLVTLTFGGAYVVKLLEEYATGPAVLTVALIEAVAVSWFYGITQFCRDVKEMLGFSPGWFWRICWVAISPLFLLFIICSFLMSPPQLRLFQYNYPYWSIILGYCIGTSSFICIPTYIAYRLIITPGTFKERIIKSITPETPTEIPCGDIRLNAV

CNC(C)Cc1cc2ccccc2o1 (stereo not drawn) [2-MAPB, N,α-dimethyl-2-benzofuranethanamine]
Ki (hDAT [1]; [15]): 1630 ± 440 nM
increase in extracellular 5-HT levels (mouse striatum): 6- to 12 fold
IC50 (hNET [2]; [16]): 39.3 ± 5.2 nM
releasing efficacy at hSERT (hSERT [3]): partial release
% maximum release ± sem, hSERT [3H]5-HT (hSERT [3]): 77.3 ± 5.3%
releasing efficacy at hDAT (hDAT [4]): partial release
% maximum release ± sem, hDAT [3H]DA (hDAT [4]): 48.0 ± 2.6%
Ki (hNET [5]; [17]): 1990 ± 220 nM
Ratio DAT/SERT (hDAT [6]): 3.0
releasing efficacy at hNET (hNET [7]): partial release
EC50 (hNET [7]; [18]): 450 ± 120 nM
% maximum release ± sem, hNET [3H]NE (hNET [7]): 63 ± 10%

CCNC(C)Cc1ccc2occc2c1 (stereo not shown) [5-EAPB, reference compound]
increase in extracellular 5-HT levels (mouse striatum): 6- to 12 fold

CNC(C)Cc1ccc2occc2c1 (stereo not drawn) [5-MAPB, N,α-dimethyl-5-benzofuranethanamine]
Ki (hDAT [1]; [15]): 2660 ± 610 nM
increase in extracellular 5-HT levels (mouse striatum): 6- to 12 fold
IC50 (hNET [2]; [16]): 73 ± 18 nM
releasing efficacy at hSERT (hSERT [3]): fully efficacious
% maximum release ± sem, hSERT [3H]5-HT (hSERT [3]): 104.3 ± 5.7%
releasing efficacy at hDAT (hDAT [4]): partially efficacious
% maximum release ± sem, hDAT [3H]DA (hDAT [4]): 53.8 ± 6.6%
Ki (hNET [5]; [17]): 3150 ± 270 nM
Ratio DAT/SERT (hDAT [6]): 1.4
releasing efficacy at hNET (hNET [7]): partially efficacious
EC50 (hNET [7]; [18]): 580 ± 210 nM
% maximum release ± sem, hNET [3H]NE (hNET [7]): 89.0 ± 8.0%

CNC(C)Cc1ccc2c(c1)CCO2 (stereo not shown) [5-MAPDB, 1-(2,3-dihydrobenzofuran-5-yl)-N-methylpropan-2-amine]
IC50 (hSERT [8]): 113 ± 30 nM
selectivity for SERT over DAT (uptake potency) (hSERT [8]; uptake inhibition potencies): 25 fold
Ki (hDAT [1]): > 30000 nM
IC50 (hNET [2]): 560 ± 180 nM
EC50 (hSERT [3]): 340 ± 35 nM
releasing efficacy at hSERT (hSERT [3]): fully efficacious
% maximum release ± sem, hSERT [3H]5-HT (hSERT [3]): 95.7 ± 8.9%
EC50 (hDAT [4]): 34700 ± 9600 nM
% maximum release ± sem, hDAT [3H]DA (hDAT [4]): 32 ± 13%
Ki (hNET [5]): > 30000 nM
Ki (hSERT [9]): 8800 ± 1700 nM
IC50 (hDAT [6]): 2790 ± 800 nM
Ratio DAT/SERT (hDAT [6]): 0.041
EC50 (hNET [7]): 840 ± 310 nM
% maximum release ± sem, hNET [3H]NE (hNET [7]): 64.2 ± 4.7%

CNC(C)Cc1ccc2c(c1)OCO2 (stereo not shown) [MDMA, reference compound]
Ki (hDAT [1]; [15]): 31000 ± 4900 nM
IC50 (hNET [2]; read-out: Inhibition of [3H]neurotransmitter uptake IC50 ± sem, hNET [3H]NE): 630 nM
% maximum release ± sem, hDAT [3H]DA (hDAT [10]): 94 ± 10%
Ki (hNET [5]; read-out: Inhibition of [125I]RTI-55 binding Ki ± sem, hNET): 15800 nM
EC50 (hNET [11]; [18]): 360 ± 92 nM
% maximum release ± sem, hNET [3H]NE (hNET [11]; relative to maximal METH release): 147 ± 15%
Ratio DAT/SERT (hDAT [6]): 0.25
% maximum release ± sem, hSERT [3H]5-HT (hSERT [12]): 85.1 ± 7.8%

CN[C@@H](C)Cc1ccccc1 [METH, methamphetamine, reference compound]
IC50 (hSERT [8]): 9300 ± 1100 nM
Ki (hDAT [1]): 4410 ± 430 nM
IC50 (hNET [2]; [16]): 25.8 ± 3 nM
EC50 (hSERT [3]): 14500 ± 4200 nM
% maximum release ± sem, hSERT [3H]5-HT (hSERT [3]): 101.8 ± 3.1%
EC50 (hDAT [4]): 1200 ± 350 nM
% maximum release ± sem, hDAT [3H]DA (hDAT [4]): 106.7 ± 2.3%
Ki (hNET [5]): 2510 ± 240 nM
Ki (hSERT [9]): 150000 ± 17000 nM
IC50 (hDAT [6]): 97 ± 13 nM
Ratio DAT/SERT (hDAT [6]): 96
EC50 (hNET [7]): 255 ± 78 nM
% maximum release ± sem, hNET [3H]NE (hNET [7]): 107.5 ± 8.7%

CNC(COC)C(=O)c1ccc(C)cc1 (stereo not shown) [Mexedrone, 3-methoxy-2-(methylamino)-1-(p-tolyl)propan-1-one]
IC50 (hSERT [8]): 5400 ± 1200 nM
Ki (hDAT [1]): 8390 ± 540 nM
IC50 (hNET [2]): 3190 ± 980 nM
EC50 (hSERT [3]): 26100 ± 9300 nM
releasing efficacy at hSERT (hSERT [3]): full efficacy
% maximum release ± sem, hSERT [3H]5-HT (hSERT [3]): 84 ± 13%
EC50 (hDAT [4]): > 100000 nM
releasing efficacy at hDAT (hDAT [4]): no hDAT efficacy
% maximum release ± sem, hDAT [3H]DA (hDAT [4]): 3.04 ± 0.61%
Ki (hNET [5]): > 27600 nM
Ki (hSERT [9]): 22200 ± 6200 nM
IC50 (hDAT [6]): 2750 ± 220 nM
Ratio DAT/SERT (hDAT [6]): 2.0
EC50 (hNET [7]): > 61000 nM
releasing efficacy at hNET (hNET [7]): minimal hNET efficacy
% maximum release ± sem, hNET [3H]NE (hNET [7]): 12.5 ± 3.1%

CCCC(NC)C(=O)c1ccccc1 (stereo not shown) [Pentedrone]
IC50 (hNET [13]): 239 ± 67 nM
Ratio DAT/SERT (hDAT [14]): 51

CCCC(NC)C(=O)c1ccc2c(c1)OCO2 (stereo not shown) [Pentylone]
IC50 (hNET [13]): 650 ± 160 nM
Ratio DAT/SERT (hDAT [14]): 4.9

CCNC(C)C(=O)c1ccc2c(c1)OCO2 (stereo not shown) [ethylone]
Ratio DAT/SERT (hDAT [14]): 0.27

CNC(C)C(=O)c1ccc(C)cc1 (stereo not shown) [mephedrone]
DAT selectivity (DAT/SERT) (hDAT [14]; ref Eshleman et al. 2013, Luethi et al. 2018): 5.2 fold

CCCC(C(=O)c1ccccc1)N1CCCC1 (stereo not drawn) [α-PVP]
IC50 (hNET [13]): 46 ± 18 nM
Ratio DAT/SERT (hDAT [14]): 2900
